From patent US6455589B1, “Primary N-hydroxylamines” (The Regents of the University of California, priority 1999, dated 2002)
“Also recorded” adds a separate entry of the source. Where two headings read alike, the source gives them in different places.

Assays:
IMR90 cells [1] = assay: Replicative life span of IMR90 cells (gain in PDLs, delay of senescence); assay type: cell-based, human; settings: for Toxicity to the cells: high concentrations (100 μM); for Gain in PDLs: continuous cultivation, compared to control untreated cells
Experimental: Cultivating IMR90 cells in culture—Normal human […] fibroblasts (IMR90) cells were obtained from the Coriell Institute for Medical Research at a population doubling level (PDL) of 10.85. The PDLs were calculated as log2(D/Do), where D and Do are defined as the density of cells at the time of harvesting and seeding, respectively. Stock cultures were grown in 100 mm Corning tissue culture dishes containing 10 ml of Dulbecco's modified Eagle's medium (DMEM) supplemented with 10% (V/V) fetal bovine serum (Hyclone). Stock cultures were split once a week when near confluence. Cells were harvested by trypsinization for 5 min at 37° C., immediately collected in 5 ml complete DMEM, washed once with 5 ml complete DMEM and incubated for 10-15 min at 37° C. to allow the cells to recover.
To test the effect of hydroxylamines on replicative life span, IMR90 cells were seeded at 0.5×106 per 100 mm dish. N-hydroxylamines (N-t-butyl hydroxylamine, N-benzyl hydroxylamine, N-methyl hydroxyl- amine) were added either individually (final concentration 10 or 100 μM) or in a combination of all three N-hydroxylamines (30 μM each). The cultures were split after 7 days and seeded with fresh medium supplemented with the hydroxylamines described above. In other experiments the medium of the cultures was replaced after 3 days of seeding with fresh medium and with fresh N-hydroxylamines, the split was done as usual after 7 days from seeding. The effect of PBN on life span was tested as in (5).

[2] = mice; cited from earlier work
IMR90 cells [3] = assay: Replicative life span of IMR90 cells (gain in PDLs, delay of senescence); assay type: cell-based, human; settings: 25 μM
in vivo = settings: male, C57BL/6J and DBA/2J, mouse, in vivo
Experimental: C57BL/6J and DBA/2J male mice (35-40 g) are tested for the acute lethal effects of adriamycin and the prevention of acute lethality by pretreatment doses of subject hydroxylamines. Mice are injected i.p with either saline or subject hydroxylamines 30 minutes prior to administration of adriamycin.

IMR90 cells [4] = assay: Cellular levels of GSH and GSSG in IMR90 cells (HPLC-EC); assay type: cell-based, human; settings: for GSH / GSH/GSSG / GSSG: 100 μM, 26-50 PDLs; for Increase of the GSH/GSSG ratio: vs control
Experimental: Measurement of cellular levels of GSH and GSSG in IMR90 cells—Cultivated IMR90 cells (≈3×10^6) were washed once in cold PBS and resuspended in 200 μl of ice cold MSA (0.2M MSA/0.5mM diethylenetriamine pentaacetic acid, DTPA) and allowed to stand for 10 min at room temperature. Denatured proteins were removed by centrifugation and the supernatant was filtered with 30,000 D MW cut-off Ultrafree filters (Millipore) before injection. Fifty microliters were injected and separated on an HPLC column (3-μm 0.46×15cm Suplecosil LC18-DB, Supelco, Bellefonte, Pa.) with a flow rate of 1 ml/min using a mobile phase consisting of 25mM NaH2PO4, 5 mM octane sulfonic acid, and 2% acetonitrile, adjusted to pH 2.7 with phosphoric acid (26). An ESA model 5100A Coulochem detector, 5020 guard cell and model 5010 analytical cell combination was used for analysis. Oxidation potentials of 900 mV, 400 mV and 880 mV were used for guard cell, electrode 1 and 2, respectively. Full-scale output was 10 μA and peak areas were compared using commercial GSH and GSSG as standards.

IMR90 cells [5] = assay: Steady state level of oxidants in IMR90 cells, DCFH oxidation by FACS; assay type: cell-based, human; settings: for DCFH, AFU/PDL (rate of DCFH oxidation per PDL): 100 μM, linear regression 26-50 PDLs; for Percent of decrease in the rate of oxidants formation from control: DCFH oxidation, continuous treatment
Experimental: (§1) Analysis of the age-dependent changes in the steady state level of oxidants and mitochondrial membrane potential in IMR90 cells by FACS—[…] were trypsinized and resuspended into complete DMEM. For each condition, two tubes were prepared with 1×10^6 cells each. Tubes were then spun at 250 g for 10 min at room temperature and supernatant was replaced with 1 ml of Hanks Balanced Salt Solution (HBSS) without Ca^++ or Mg^++. Rho123 (20 μl of 525 μM stock; 10.5 μM final concentration) was added to one tube and DCFH (20 μl of 1.25 mM stock; 25 μM final concentration) was added to the other tube. The cells were then incubated in the dark in a water bath at 37° C. for 30 min followed by cell resuspension and centrifugation at 250 g for 10 min at room temperature. The supernatant (500 μl) was removed from each tube and the cells were resuspended in the remaining 500 μl before FACS analysis on a FACSort analyzer (Becton Dickinson, San Jose, Calif.). Cell Quest was used for data acquisition and analysis. The data is reported as the mean of the channel of the fluorescence histogram obtained. Fluorescence output was calibrated with LinearFlow Green Flow cytometry Intensity Calibration Particles (Molecular Probes, Eugene, Oreg.).

IMR90 cells [6] = assay: H2O2-induced senescence of IMR90 cells; assay type: cell-based, human; settings: 20 μM or 30 μM H2O2 once a week, cells continuously treated
Experimental: To determine the effect of H2O2 on the replicative life span, cells were first seeded with fresh medium with or without N-hydroxylamines (see above) for a week. Next, cells grown with or without N-hydroxylamines were each split into two additional groups and then either; 1) treated with 20 or 30 μM H2O2 or 2) without treatment with H2O2.

IMR90 cells [7] = assay: Senescence-dependent change in mitochondria of IMR90 cells, Rho123 accumulation by FACS; assay type: cell-based, human; settings: for Rho123, AFU/PDL (rate of Rho123 accumulation per PDL): 100 μM, linear regression 26-50 PDLs; for Decrease of the rate of Rho123 accumulation as a function of senescence: vs control
Experimental: as §1

Aβ(1-40) = biological target: T1, Aβ(1-40) (Homo sapiens, UniProt P05067); assay: Inhibition of Aβ(1-40) beta-pleated sheet formation (Thioflavin T fluorescence); assay type: biochemical; settings: compound 10 μM, 12 hours
T1 construct: particularly the aggregated fibrils of synthetic Aβ(1-40)
Source text: The deposition of amyloid β-peptide (Aβ) is associated with the development of Alzheimer's disease. See, for example, G. G. Glenner et al. (1984) Biochem. Biophys. Res. Commun., 120:885-890; and R. E. Tanzi (1989) Ann. Med., 21:91-94. Accordingly, compounds which effectively disrupt the formation of Aβ(1-40) or Aβ(1-42) beta-pleated sheets are potentially useful for preventing and/or reversing such amyloid deposits. Thioflavin T (ThT) is known to rapidly associate with beta-pleated sheets, particularly the aggregated fibrils of synthetic Aβ(1-40). This association gives rise to a new excitation maximum at 440 nm and to enhanced emission at 490 nm.
The experiments are performed using a CytoFluor II fluorescence plate reader having the following parameters: Filters (Excitation and Emission)=440 nm/20 and 490 nm/40; Gain=75; Cycle to Cycle Time=30 min; Run Time=720 min (24 cycles) or dependent on exp. design; Plate=96 well. […] The fluorescence measurement begins when the Aβ(1-40) is added and continues for a total of 12 hours. The percent inhibition of beta-pleated sheet formation is calculated from the relative fluorescence unit difference between aggregation in the presence and in the absence of the test compounds.

IMR90 cells [8] = assay: Entry and concentration of N-t-butyl hydroxylamine in cells; assay type: in vitro ADME, human
[9] = Auto-oxidation in a cell free system; assay type: physicochemical
cytochrome c = assay: Auto-oxidation of cyt c^II and direct reduction of cytochrome c by N-hydroxylamines; assay type: biochemical
Experimental: In order to test the effect of N-hydroxylamines on the spontaneous oxidation of cytochrome c, a complete reduction of cyt c^III was achieved by incubating the X/XO system for 4-5 min at 25° C. Auto-oxidation of cyt c^II is associated with a decrease in absorbance at 550 nm. Reduced cytochrome c was incubated at 25° C. with or without 2 or 3 mM N-hydroxylamines and the auto-oxidation was followed by spectrophotometer. The rate of reduction of cytochrome c by different concentrations of each N-hydroxylamine was measured by the increase in absorbance at 550 nm.

T1 sequence (P05067 672-711 limits assumed): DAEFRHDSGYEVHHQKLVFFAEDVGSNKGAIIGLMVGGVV

catalase
Delay of senescence of IMR90 cells (in words) (IMR90 cells [1]): none

O=Cc1ccccc1 [benzaldehyde]
Delay of senescence of IMR90 cells (in words) (IMR90 cells [1]): without effect or toxic at high concentrations | Delay of senescence of IMR90 cells (in words) (IMR90 cells [1]; listed as Benzaldehyde): without effect and in high concentrations was toxic

NO [HNHOH, hydroxylamine]
Anticancer activity [2]: possesses anticancer activity | Senescence [2]: delayed senescence

vitamin E
Delay of senescence of IMR90 cells (in words) (IMR90 cells [1]): none

O=C1O[C@H]([C@@H](O)CO)C(O)=C1O [ascorbic acid]
Delay of senescence of IMR90 cells (in words) (IMR90 cells [1]): none

CC1(C)CC(O)CC(C)(C)N1[O] [Example 4-OH-TEMPO, 4-hydroxy-2,2,6,6-tetramethylpiperidine-1-oxyl]
Delay of senescence of IMR90 cells (in words) (IMR90 cells [1]): none | Toxicity to the cells (IMR90 cells [1]): toxic | Delay of replicative senescence (IMR90 cells [3]): did not delay the replicative senescence

COc1cccc2c1C(=O)c1c(O)c3c(c(O)c1C2=O)C[C@@](O)(C(=O)CO)C[C@@H]3O[C@H]1C[C@H](N)[C@H](O)[C@H](C)O1 [adriamycin]
Acute lethality (dose range) (in vivo): 10 to 30 mg/kg | LD50 (in vivo): 25 mg/kg

NOCc1ccccc1 [O-benzyl hydroxylamine]
Delay of senescence of IMR90 cells (in words) (IMR90 cells [1]): accelerate senescence

ONCc1ccccc1 [NBHA, N-benzyl hydroxylamine]
GSH (IMR90 cells [4]): 48.4 ± 3.4 | GSH/GSSG (IMR90 cells [4]): 134.4 | GSSG (IMR90 cells [4]): 0.36 ± 0.015 | Increase of the GSH/GSSG ratio (IMR90 cells [4]): 90.4% | DCFH, AFU/PDL (rate of DCFH oxidation per PDL) (IMR90 cells [5]): 0.11 (0.08) AFU/PDL | Percent of decrease in the rate of oxidants formation from control (IMR90 cells [5]): 95% | Delay of senescence of IMR90 cells (in words) (IMR90 cells [1]): active; also recorded: able to delay the senescence | H2O2-induced senescence (IMR90 cells [6]): attenuated | Rho123, AFU/PDL (rate of Rho123 accumulation per PDL) (IMR90 cells [7]): 9.7 (0.86) AFU/PDL | Decrease of the rate of Rho123 accumulation as a function of senescence (IMR90 cells [7]): 69%

CNO [NMHA, N-methyl hydroxylamine]
GSH (IMR90 cells [4]): 52.15 ± 6.7 | GSH/GSSG (IMR90 cells [4]): 137.2 | GSSG (IMR90 cells [4]): 0.38 ± 0.08 | Increase of the GSH/GSSG ratio (IMR90 cells [4]): 94% | DCFH, AFU/PDL (rate of DCFH oxidation per PDL) (IMR90 cells [5]): 0.45 (0.3) AFU/PDL | Percent of decrease in the rate of oxidants formation from control (IMR90 cells [5]): 79% | Delay of senescence of IMR90 cells (in words) (IMR90 cells [1]): active; also recorded: able to delay the senescence | Rho123, AFU/PDL (rate of Rho123 accumulation per PDL) (IMR90 cells [7]): 15.3 (0.86) AFU/PDL | Decrease of the rate of Rho123 accumulation as a function of senescence (IMR90 cells [7]): 52%

CC(C)(C)N=O [tNB, nitroso-tert-butane]
Effect on IMR90 cells (IMR90 cells [1]; 10 μM in medium): no effect

ONC1CCCCC1 [Example 3, N-Cyclohexylhydroxylamine]
Inhibition of Aβ(1-40) beta-pleated sheet formation (Aβ(1-40)): inhibit

CON [O-methyl hydroxylamine]
Delay of senescence of IMR90 cells (in words) (IMR90 cells [1]): accelerate senescence

CC(C)(C)ON [O-t-butyl hydroxylamine]
Delay of senescence of IMR90 cells (in words) (IMR90 cells [1]): accelerate senescence

CC(C)(C)NO [NtBHA, N-t-butyl hydroxylamine]
GSH (IMR90 cells [4]): 49.5 ± 5.6 | GSH/GSSG (IMR90 cells [4]): 123.8 | GSSG (IMR90 cells [4]): 0.4 ± 0.045 | Increase of the GSH/GSSG ratio (IMR90 cells [4]): 75% | DCFH, AFU/PDL (rate of DCFH oxidation per PDL) (IMR90 cells [5]): 0.27 (0.32) AFU/PDL | Percent of decrease in the rate of oxidants formation from control (IMR90 cells [5]): 88% | Concentration in the cells (IMR90 cells [8]): approximately 5 fold | Entry into the cells (IMR90 cells [8]): rapidly enters the cells | Delay of senescence of IMR90 cells (in words) (IMR90 cells [1]): delays senescence | Gain in PDLs (IMR90 cells [1]; 10 μM): 5.8 PDLs | Gain in PDLs (IMR90 cells [1]; 100 μM (added once per 7 days)): 19.7 PDLs | Concentration required to delay senescence (gain in PDLs), relative to PBN (IMR90 cells [1]; vs PBN 200 μM): 20 times lower | Stability to auto-oxidation [9]: stable to auto-oxidation | Direct reduction of cyt c^III to cyt c^II (cytochrome c): somewhat less efficient | H2O2-induced senescence (IMR90 cells [6]): attenuated | Rho123, AFU/PDL (rate of Rho123 accumulation per PDL) (IMR90 cells [7]): 9.3 (0.85) AFU/PDL | Decrease of the rate of Rho123 accumulation as a function of senescence (IMR90 cells [7]): 70%

CC(C)NO [Example 1, N-Isopropylhydroxylamine]
Inhibition of Aβ(1-40) beta-pleated sheet formation (Aβ(1-40)): inhibit

CC1(C)CCCC(C)(C)N1[O] [TEMPO, 2,2,6,6-tetramethyl-piperidine-1-oxyl]
Delay of senescence of IMR90 cells (in words) (IMR90 cells [1]): none | Toxicity to the cells (IMR90 cells [1]): toxic | Delay of replicative senescence (IMR90 cells [3]): did not delay the replicative senescence
